# Experimental data as given in the supplement of paper PMC10307832.
# Assays:
# Assay in all cases: relative viability (nuclei count vs DMSO), 5 days (fraction); higher = more cells survive
# [1] = compound: CCC1=CN=CN=C1N2CCN(CC2)CC3=NC4=C(N3)C=C(C=C4)C(F)(F)F
# Procedure, shortened: (§1)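 Cells of lung cancer lines were placed in 1536-well plates and kept overnight at 37 °C. Pinning then delivered five library-drug doses (not always all listed), spaced by √10, onto plates anchored with vehicle, and the cells were left 5 days without changing medium. One step fixed, permeabilised and stained them with Hoechst, and MetaXpress counted nuclei in 4× images. Viability, as a median over plates, is treated-well nuclei divided by vehicle-well nuclei, with acceptance only at control CV below 25% and at least one doubling.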
# [2] = compound: CCn1c(-c2nonc2N)nc2cnc(Oc3cccc(NC(=O)c4ccc(OCCN5CCOCC5)cc4)c3)cc21
# Procedure, shortened: as §1
# [3] = compound: N=C1NC(=O)/C(=C/c2ccc(O)cc2)S1 [Mirin]
# Procedure, shortened: as §1
# [4] = compound: CCn1c(-c2nonc2N)nc2cnc(Oc3cccc(NC(=O)c4ccc(OCCN5CCOCC5)cc4)c3)cc21 + C[C@@H](Oc1cc(-c2cnn(C3CCNCC3)c2)cnc1N)c1c(Cl)ccc(F)c1Cl [Crizotinib] (partner 1 µM)
# Procedure, shortened: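 Lung cancer cell lines were seeded in 1536-well plates and dosed by pin tool the next day, with either a single drug or a fixed anchor-drug dose combined with five library-drug doses (not always all listed) spaced in √10 steps. Five days later, one step fixed the cells and stained their nuclei (final 0.05% Triton X-100, 1% formaldehyde, 1 ug/ml Hoechst), and nuclei were counted on 4× images. Relative viability is the nuclei count in treated wells divided by the count in vehicle wells, and each value is the median of duplicate plates.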
cell line,measurement,setting,value
NCI-H1975,relative viability,[1]; 0.04 µM,1.04
same,relative viability,[1]; 0.1265 µM,0.951
same,relative viability,[1]; 0.4 µM,0.931
same,relative viability,[1]; 1.265 µM,0.844
same,relative viability,[1]; 4 µM,0.942
same,relative viability,[2]; 0.04 µM,0.824
same,relative viability,[2]; 0.1265 µM,0.636
same,relative viability,[2]; 0.4 µM,0.49
same,relative viability,[2]; 1.265 µM,0.427
same,relative viability,[2]; 4 µM,0.304
same,relative viability,[3]; 0.25 µM,1.07
same,relative viability,[3]; 0.7906 µM,1.03
same,relative viability,[3]; 2.5 µM,0.94
same,relative viability,[3]; 7.906 µM,1.01
same,relative viability,[3]; 25 µM,0.979
same,relative viability,[4]; first compound 0.04 µM,0.933
same,relative viability,[4]; first compound 0.1265 µM,0.788
same,relative viability,[4]; first compound 0.4 µM,0.864
same,relative viability,[4]; first compound 1.265 µM,0.279
same,relative viability,[4]; first compound 4 µM,0.218
NCI-H1993,relative viability,[1]; 0.04 µM,0.968
same,relative viability,[1]; 0.1265 µM,0.921
same,relative viability,[1]; 0.4 µM,0.809
same,relative viability,[1]; 1.265 µM,0.916
same,relative viability,[1]; 4 µM,0.945
same,relative viability,[2]; 0.04 µM,0.985
same,relative viability,[2]; 0.1265 µM,0.878
same,relative viability,[2]; 0.4 µM,0.603
same,relative viability,[2]; 1.265 µM,0.793
same,relative viability,[2]; 4 µM,0.82
same,relative viability,[3]; 0.25 µM,0.914
same,relative viability,[3]; 0.7906 µM,0.75
same,relative viability,[3]; 2.5 µM,1.08
same,relative viability,[3]; 7.906 µM,0.941
same,relative viability,[3]; 25 µM,0.879
same,relative viability,[4]; first compound 0.04 µM,0.991
same,relative viability,[4]; first compound 0.1265 µM,0.864
same,relative viability,[4]; first compound 1.265 µM,0.75
same,relative viability,[4]; first compound 4 µM,0.742
NCI-H2009,relative viability,[1]; 0.04 µM,1.08
same,relative viability,[1]; 0.1265 µM,0.991
same,relative viability,[1]; 0.4 µM,0.989
same,relative viability,[1]; 1.265 µM,0.963
same,relative viability,[1]; 4 µM,0.933
same,relative viability,[2]; 0.04 µM,0.978
same,relative viability,[2]; 0.1265 µM,0.754
same,relative viability,[2]; 0.4 µM,0.676
same,relative viability,[2]; 1.265 µM,0.374
same,relative viability,[2]; 4 µM,0.418
same,relative viability,[3]; 0.25 µM,1.01
same,relative viability,[3]; 0.7906 µM,1.08
same,relative viability,[3]; 2.5 µM,1.04
same,relative viability,[3]; 7.906 µM,0.843
same,relative viability,[3]; 25 µM,1.01
same,relative viability,[4]; first compound 0.04 µM,0.987
same,relative viability,[4]; first compound 0.1265 µM,0.847
same,relative viability,[4]; first compound 0.4 µM,0.754
same,relative viability,[4]; first compound 1.265 µM,0.41
same,relative viability,[4]; first compound 4 µM,0.258
NCI-H2023,relative viability,[1]; 0.04 µM,1.03
same,relative viability,[1]; 0.1265 µM,0.914
same,relative viability,[1]; 0.4 µM,0.917
same,relative viability,[1]; 1.265 µM,0.858
same,relative viability,[1]; 4 µM,1.03
same,relative viability,[2]; 0.04 µM,1.13
same,relative viability,[2]; 0.1265 µM,0.964
same,relative viability,[2]; 0.4 µM,0.743
same,relative viability,[2]; 1.265 µM,0.508
same,relative viability,[2]; 4 µM,0.419
same,relative viability,[3]; 0.25 µM,1.01
same,relative viability,[3]; 0.7906 µM,0.937
same,relative viability,[3]; 2.5 µM,0.958
same,relative viability,[3]; 7.906 µM,0.975
same,relative viability,[3]; 25 µM,0.86
same,relative viability,[4]; first compound 0.04 µM,0.737
same,relative viability,[4]; first compound 0.1265 µM,0.736
same,relative viability,[4]; first compound 0.4 µM,0.593
same,relative viability,[4]; first compound 1.265 µM,0.25
same,relative viability,[4]; first compound 4 µM,0.194
NCI-H2085,relative viability,[1]; 0.04 µM,0.896
same,relative viability,[1]; 0.1265 µM,0.912
same,relative viability,[1]; 0.4 µM,0.949
same,relative viability,[1]; 1.265 µM,0.918
same,relative viability,[1]; 4 µM,0.972
same,relative viability,[2]; 0.04 µM,1.09
same,relative viability,[2]; 0.1265 µM,0.919
same,relative viability,[2]; 0.4 µM,0.826
same,relative viability,[2]; 1.265 µM,0.778
same,relative viability,[2]; 4 µM,0.765
same,relative viability,[3]; 0.25 µM,0.981
same,relative viability,[3]; 0.7906 µM,0.979
same,relative viability,[3]; 2.5 µM,1.01
same,relative viability,[3]; 7.906 µM,0.957
same,relative viability,[3]; 25 µM,0.99
same,relative viability,[4]; first compound 0.04 µM,0.988
same,relative viability,[4]; first compound 0.1265 µM,0.797
same,relative viability,[4]; first compound 0.4 µM,0.661
same,relative viability,[4]; first compound 1.265 µM,0.741
same,relative viability,[4]; first compound 4 µM,0.72
NCI-H2087,relative viability,[1]; 0.04 µM,1.05
same,relative viability,[1]; 0.1265 µM,0.958
same,relative viability,[1]; 0.4 µM,0.973
same,relative viability,[1]; 1.265 µM,0.854
same,relative viability,[1]; 4 µM,0.716
same,relative viability,[2]; 0.04 µM,1.21
same,relative viability,[2]; 0.1265 µM,0.812
same,relative viability,[2]; 0.4 µM,0.844
same,relative viability,[2]; 1.265 µM,0.698
same,relative viability,[2]; 4 µM,0.637
same,relative viability,[3]; 0.25 µM,1.01
same,relative viability,[3]; 0.7906 µM,1
same,relative viability,[3]; 2.5 µM,0.983
same,relative viability,[3]; 7.906 µM,0.896
same,relative viability,[3]; 25 µM,1.2
same,relative viability,[4]; first compound 0.1265 µM,0.591
same,relative viability,[4]; first compound 0.4 µM,0.678
same,relative viability,[4]; first compound 1.265 µM,0.522
same,relative viability,[4]; first compound 4 µM,0.336
NCI-H2126,relative viability,[1]; 0.04 µM,1
same,relative viability,[1]; 0.1265 µM,0.977
same,relative viability,[1]; 0.4 µM,0.969
same,relative viability,[1]; 1.265 µM,0.891
same,relative viability,[1]; 4 µM,1.02
same,relative viability,[2]; 0.04 µM,1.09
same,relative viability,[2]; 0.1265 µM,1.04
same,relative viability,[2]; 0.4 µM,0.74
same,relative viability,[2]; 1.265 µM,0.792
same,relative viability,[2]; 4 µM,0.943
same,relative viability,[3]; 0.25 µM,1.03
same,relative viability,[3]; 0.7906 µM,0.908
same,relative viability,[3]; 2.5 µM,0.995
same,relative viability,[3]; 7.906 µM,1
same,relative viability,[3]; 25 µM,0.979
same,relative viability,[4]; first compound 0.04 µM,1.05
same,relative viability,[4]; first compound 0.1265 µM,1.05
same,relative viability,[4]; first compound 0.4 µM,1.04
same,relative viability,[4]; first compound 1.265 µM,1.07
same,relative viability,[4]; first compound 4 µM,1.02
NCI-H2170,relative viability,[1]; 0.04 µM,0.946
same,relative viability,[1]; 0.1265 µM,0.97
same,relative viability,[1]; 0.4 µM,0.953
same,relative viability,[1]; 1.265 µM,0.848
same,relative viability,[1]; 4 µM,0.946
same,relative viability,[2]; 0.04 µM,0.95
same,relative viability,[2]; 0.1265 µM,0.953
same,relative viability,[2]; 0.4 µM,0.919
same,relative viability,[2]; 1.265 µM,0.732
same,relative viability,[2]; 4 µM,0.754
same,relative viability,[3]; 0.25 µM,1.05
same,relative viability,[3]; 0.7906 µM,0.89
same,relative viability,[3]; 2.5 µM,0.985
same,relative viability,[3]; 7.906 µM,0.946
same,relative viability,[3]; 25 µM,0.933
same,relative viability,[4]; first compound 0.04 µM,1.03
same,relative viability,[4]; first compound 0.1265 µM,1.21
same,relative viability,[4]; first compound 0.4 µM,1.15
same,relative viability,[4]; first compound 1.265 µM,1.17
same,relative viability,[4]; first compound 4 µM,1.26
NCI-H2228,relative viability,[1]; 0.04 µM,1
same,relative viability,[1]; 0.1265 µM,0.858
same,relative viability,[1]; 0.4 µM,0.99
same,relative viability,[1]; 1.265 µM,0.928
same,relative viability,[1]; 4 µM,0.98
same,relative viability,[2]; 0.04 µM,1.26
same,relative viability,[2]; 0.1265 µM,0.964
same,relative viability,[2]; 0.4 µM,0.908
same,relative viability,[2]; 1.265 µM,0.919
same,relative viability,[2]; 4 µM,0.881
same,relative viability,[3]; 0.25 µM,1.09
same,relative viability,[3]; 0.7906 µM,0.89
same,relative viability,[3]; 2.5 µM,0.969
same,relative viability,[3]; 7.906 µM,0.886
same,relative viability,[3]; 25 µM,1.02
same,relative viability,[4]; first compound 0.04 µM,0.468
same,relative viability,[4]; first compound 0.1265 µM,0.385
same,relative viability,[4]; first compound 0.4 µM,0.49
same,relative viability,[4]; first compound 1.265 µM,0.432
same,relative viability,[4]; first compound 4 µM,0.471
